Laboratory results from ChEMBL document CHEMBL1201862, “PubChem BioAssay data set” (2004).
Active and inactive are the calls of the source.

Tests used:
H9c2 = test: cells; assay type: functional, cell-based; details: Rattus norvegicus, H9c2, Myocardium;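 further: confirmatory concentration-response retest of ultra-high-throughput screening hits for modulation of myocardial damage; cell death induced by hydrogen peroxide oxidative stress; compound pretreatment for 60 min then peroxide exposure for 2 h; potency is for protecting the cells against peroxide damage rather than for killing them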
[1] = molecular target: T1, Heat shock factor protein 1 (Mus musculus, UniProt P38532); test: decrease of HSF1-responsive luciferase luminescence – cell-based, NIH3T3, dose retest, confirmation (AID 2382); assay type: functional;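 further: NIH3T3 fibroblasts with HSF1-driven luciferase reporter stressed by proteasome inhibitor MG132; luminescence from HSF1-driven luciferase expression after 8 hours of MG132 stress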
T1 sequence (P38532 whole entry): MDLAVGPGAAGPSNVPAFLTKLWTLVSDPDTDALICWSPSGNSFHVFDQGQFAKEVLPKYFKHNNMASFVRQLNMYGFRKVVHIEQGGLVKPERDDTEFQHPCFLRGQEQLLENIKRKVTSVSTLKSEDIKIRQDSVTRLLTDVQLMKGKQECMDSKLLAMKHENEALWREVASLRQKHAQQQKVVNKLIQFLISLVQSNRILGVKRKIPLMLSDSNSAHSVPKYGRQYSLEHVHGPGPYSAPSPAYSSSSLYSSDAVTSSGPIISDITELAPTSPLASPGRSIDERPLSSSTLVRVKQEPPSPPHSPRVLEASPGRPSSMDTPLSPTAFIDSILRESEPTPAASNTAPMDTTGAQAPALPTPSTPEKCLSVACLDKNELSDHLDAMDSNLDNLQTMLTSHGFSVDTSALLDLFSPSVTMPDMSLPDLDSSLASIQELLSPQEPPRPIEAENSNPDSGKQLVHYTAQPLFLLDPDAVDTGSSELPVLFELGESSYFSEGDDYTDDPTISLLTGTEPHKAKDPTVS

[2] = molecular target: T2, Corticotropin-releasing factor receptor 2/Corticotropin-releasing factor-binding protein (Homo sapiens, UniProt P24387+Q13324); test: Dose Response confirmation of uHTS hits for small molecule antagonists of the CRF-binding protein and CRF-R2 receptor complex.; assay type: functional; details: read-out: IC50_Mean
T2 sequence (Q13324 whole entry): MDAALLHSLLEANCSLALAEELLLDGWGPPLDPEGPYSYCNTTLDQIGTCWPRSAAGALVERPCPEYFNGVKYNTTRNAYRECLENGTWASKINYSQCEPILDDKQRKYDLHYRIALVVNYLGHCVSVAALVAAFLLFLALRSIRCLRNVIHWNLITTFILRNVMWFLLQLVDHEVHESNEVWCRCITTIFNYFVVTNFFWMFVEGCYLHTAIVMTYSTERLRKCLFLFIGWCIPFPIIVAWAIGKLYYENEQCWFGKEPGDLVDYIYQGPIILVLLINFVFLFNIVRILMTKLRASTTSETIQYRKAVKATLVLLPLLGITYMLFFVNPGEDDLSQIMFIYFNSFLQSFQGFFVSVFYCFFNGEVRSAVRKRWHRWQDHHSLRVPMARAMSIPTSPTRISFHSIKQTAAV
T2 sequence (P24387 whole entry): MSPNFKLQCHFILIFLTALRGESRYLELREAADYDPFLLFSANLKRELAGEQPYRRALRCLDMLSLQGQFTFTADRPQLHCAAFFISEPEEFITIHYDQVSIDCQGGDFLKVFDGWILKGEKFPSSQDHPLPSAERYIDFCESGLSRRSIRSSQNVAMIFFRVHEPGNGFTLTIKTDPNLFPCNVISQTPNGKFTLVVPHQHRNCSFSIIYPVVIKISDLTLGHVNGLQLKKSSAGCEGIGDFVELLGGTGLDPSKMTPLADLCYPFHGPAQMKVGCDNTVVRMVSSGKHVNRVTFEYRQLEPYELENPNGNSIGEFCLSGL

[3] = molecular target: T2, Corticotropin-releasing factor receptor 2/Corticotropin-releasing factor-binding protein; test: activators of CRF receptor 2 with binding protein – uHTS hits, confirmation (AID 602473); assay type: functional; details: read-out: EC50_Mean
Paired box protein Pax-8 = Paired box protein Pax-8 (Homo sapiens, UniProt Q06710); test: PAX8 transcriptional activity inhibition in RMG-I – RMG-I cells, luciferase, cherry-pick, dose response (AID 687027); assay type: functional, cell-based;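 further: luciferase reporter driven by Pax8 target thyroperoxidase promoter measured by SteadyGlo luminescence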
Paired box protein Pax-8, sequence (Q06710 whole entry): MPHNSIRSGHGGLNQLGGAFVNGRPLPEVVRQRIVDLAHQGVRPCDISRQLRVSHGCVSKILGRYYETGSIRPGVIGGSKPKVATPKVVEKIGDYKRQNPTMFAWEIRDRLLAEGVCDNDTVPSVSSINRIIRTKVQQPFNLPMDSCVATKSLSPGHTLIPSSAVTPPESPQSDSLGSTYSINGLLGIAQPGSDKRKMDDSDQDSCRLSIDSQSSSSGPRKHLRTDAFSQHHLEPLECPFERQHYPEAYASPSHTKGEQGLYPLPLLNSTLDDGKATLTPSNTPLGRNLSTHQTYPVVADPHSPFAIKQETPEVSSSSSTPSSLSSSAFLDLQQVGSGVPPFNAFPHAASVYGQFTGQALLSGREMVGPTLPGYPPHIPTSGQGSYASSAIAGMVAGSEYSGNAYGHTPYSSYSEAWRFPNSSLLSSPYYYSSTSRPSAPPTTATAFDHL

[4] = Luminescence Cell-Based Dose Confirmation HTS to Identify Activators of 5'UTR Stem-Loop Driven Alpha-Synuclein mRNA Translation in H4 Neuroglioblastoma Cells. [Related pubchem assays: 1829 (Project Summary), 1814 (Primary HTS)]; assay type: functional
[5] = Luminescence Cell-Based Dose Response HTS to Identify Activators of Luciferase Translation or Activity in H4 […] Cells. [Related pubchem assays: 1829 (Project Summary), 1814 (Primary HTS)]; assay type: functional
H4 = test: Luminescence Cell-Based Dose Response HTS to Identify Activators of 5'UTR Stem-Loop Driven Prion Protein mRNA Translation in H4 Neuroglioblastoma Cells. [Related pubchem assays: 1829 (Project Summary), 1814 (Primary HTS)]; assay type: functional; details: Homo sapiens
[6] = Trypanosoma cruzi growth suppression in host cells – NIH3T3 host cells, beta-gal luminescence, confirmation (AID 2044); assay type: functional, cell-based;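 further: intracellular parasites grown in NIH/3T3 mouse fibroblasts as host cells; luminescent beta-galactosidase reporter signal from transgenic T. cruzi replicating inside host cells; inhibitors lower the luminescence signal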
[7] = NIH3T3 cell viability loss – ATP luminescence, mouse fibroblasts, counter-screen, dose response (AID 2010); assay type: functional, cell-based;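 further: cells exposed to compound for about 90 hours before reading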
INS1 = test: INS-1E survival protection against cytokine death – cell-based, luminescence, retest, dose response (AID 449756); assay type: functional; details: Rattus norvegicus;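 further: cell death triggered by IL-1 beta plus TNF-alpha plus IFN-gamma mixture; protective hits raise ATP signal compared with cytokine alone wells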
[8] = molecular target: T3, Ubiquitin-conjugating enzyme E2 N (Homo sapiens, UniProt P61088); assay type: functional;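 further: Dose-response confirmation in a TR-FRET assay detecting UBC13-driven polyubiquitin chain formation, inhibition measured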
T3 sequence (P61088 whole entry): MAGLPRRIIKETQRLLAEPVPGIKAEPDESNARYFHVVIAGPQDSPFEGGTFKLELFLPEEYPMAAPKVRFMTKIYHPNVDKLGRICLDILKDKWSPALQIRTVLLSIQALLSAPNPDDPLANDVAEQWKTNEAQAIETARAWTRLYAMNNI

[9] = Vero E6 cell cytotoxicity, dose response, cytotoxicity control for non-replicating M. tuberculosis project, secondary assay (AID 492998); assay type: functional, VeroE6; details: Vero C1008
cells = assay type: functional

O=C(Cn1[nH]c(=O)c2ccccc2c1=O)OCC(=O)N(Cc1ccccc1)Cc1ccccc1
IC50 (H9c2): 36 µM (inactive)

Cc1cc(S(=O)(=O)Nc2ccc(C(=O)NCC(C)(C)N3CCOCC3)cc2)ccc1F
EC50 [1]: > 195 µM (not active)
IC50 [2]: > 47.1 µM (inactive)
EC50 [3]: > 53 µM (inactive)

C[C@@H]1CCCCO[C@@H](CN(C)Cc2ccc(C(F)(F)F)cc2)[C@H](C)CN([C@@H](C)CO)C(=O)c2cc(NS(=O)(=O)c3ccccc3)ccc2O1
AC50 (Paired box protein Pax-8): 4.66 µM (active)

CCCCC/N=C(/C)c1c(O)oc2ccccc2c1=O
EC50 [4]: > 120 µM (not active)
EC50 [5]: 61.4 µM (active)
EC50 (H4): 9.36 µM (active)

Cc1nc2cc(NC(=O)c3ccc(S(=O)(=O)N(C)c4ccccc4)cc3)ccc2o1
EC50 [4]: 26 µM (active)
EC50 [5]: 23.9 µM (active)
EC50 (H4): 15.1 µM (active)

CN(C)CCNc1ccc(-c2nnc(O)c3ccccc23)cc1[N+](=O)[O-]
IC50 (H9c2): > 79 µM (inactive)

COc1ccc(-[n+]2c(-c3ccc(Br)cc3)cn3c2CCCCC3)cc1
EC50 [6]: 0.552 µM (active)
EC50 [7]: > 60 µM (not active)
AC50 (INS1): 1.15 µM (active)

O=C1N=C(N/N=C/c2ccc(F)cc2)SC1c1ccccc1 (centres undefined)
IC50 [2]: > 47.1 µM (inactive)
EC50 [3]: > 53 µM (inactive)

CCCC12C(=O)C(C)(C(c3ccccc3)=C1c1ccccc1)C1C(=O)N(c3ccc(C)cc3)C(=O)C12 (centres undefined)
AC50 (INS1): 4.16 µM (active)

COc1ccc2sc(N(CCCN(C)C)C(=O)c3ccc(S(=O)(=O)N(C)Cc4ccccc4)cc3)nc2c1
EC50 [6]: 0.185 µM (active)
EC50 [7]: > 60 µM (not active)
IC50 [8]: > 20 µM (inactive)

CSC1=NCCN1C(=O)Cc1ccc(Cl)cc1
IC50 [2]: > 47.1 µM (inactive)
EC50 [3]: > 53 µM (inactive)

O=C(NC(O)C(=O)c1cccs1)c1cccnc1 (centres undefined)
IC50 (H9c2): > 79 µM (inactive)

COc1ccc(-c2nnc3c4ccccc4c(C)nn23)cc1
EC50 [4]: 13.3 µM (active)
EC50 [5]: 18.6 µM (active)
EC50 (H4): > 120 µM (not active)

CCCCON1C(=O)c2cccc3cccc(c23)C1=O
IC50 [2]: > 47.1 µM (inactive)
EC50 [3]: > 53 µM (inactive)

CNCC(O)c1cc(F)c(OCc2ccccc2)c(OCc2ccccc2)c1F (centres undefined)
IC50 [8]: > 20 µM (inactive)

O=C(NC1CCCCC1)NS(=O)(=O)c1ccc2c(c1)CCC2 [GLYHEXAMIDE]
IC50 [2]: > 47.1 µM (inactive)
EC50 [3]: > 53 µM (inactive)

c1ccc(Nc2nc(-c3ccccn3)cs2)cc1
CC50 [9]: > 20 µM (active)
IC50 (cells): 0.19 µM (active)
